{"source": "patent US9155778B2", "about": "“Tripeptides that down regulate the activity of plasma membrane transporters including sodium-D-glucose cotransporter SgIt1” (JULIUS-MAXMILLIANS-UNIVERSITAT WURZBURG, priority 2005, dated 2015)", "key": {"hPEPT1": {"target": "T1, hPEPT1 (Homo sapiens, UniProt P46059)", "T1 construct": "expressed in transfected cells; host or cells: Xenopus laevis oocytes (30 ng cRNA per oocyte)", "T1 sequence (P46059 1-708)": "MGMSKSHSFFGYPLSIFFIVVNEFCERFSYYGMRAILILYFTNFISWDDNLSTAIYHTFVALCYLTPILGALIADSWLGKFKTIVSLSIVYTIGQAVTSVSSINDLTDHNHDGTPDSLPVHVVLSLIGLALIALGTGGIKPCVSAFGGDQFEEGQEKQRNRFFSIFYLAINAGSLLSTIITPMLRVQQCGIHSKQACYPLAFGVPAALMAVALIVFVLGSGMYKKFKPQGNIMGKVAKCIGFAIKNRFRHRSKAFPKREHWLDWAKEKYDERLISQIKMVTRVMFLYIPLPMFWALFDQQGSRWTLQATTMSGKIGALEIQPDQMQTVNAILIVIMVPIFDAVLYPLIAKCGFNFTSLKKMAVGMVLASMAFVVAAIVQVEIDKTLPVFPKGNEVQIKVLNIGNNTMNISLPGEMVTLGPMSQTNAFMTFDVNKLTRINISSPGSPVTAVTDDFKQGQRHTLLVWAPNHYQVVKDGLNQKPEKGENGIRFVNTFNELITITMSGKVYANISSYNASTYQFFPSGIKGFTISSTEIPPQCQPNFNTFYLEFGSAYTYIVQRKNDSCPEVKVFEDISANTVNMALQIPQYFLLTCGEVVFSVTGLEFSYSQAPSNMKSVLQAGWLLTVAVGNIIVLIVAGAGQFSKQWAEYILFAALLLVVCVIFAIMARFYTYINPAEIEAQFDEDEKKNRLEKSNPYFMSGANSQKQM", "experiment": "Electrogenic peptide transport by hPEPT1 in oocytes, two-electrode voltage clamp", "assay_type": "cell-based", "conditions": "5 mM peptide", "protocol": "(§1) The oocytes were incubated for three days at 16° C. in ORi buffer (in mM: 5 HEPES-Tris, pH 7.4, 100 NaCl, 3 KCl, 2 CaCl2, and 1 MgCl2). […] The oocytes were superfused with Ori buffer titrated to pH 6.5, the membrane potential of the oocytes was clamped to −40 mV, and inward current induced by superfusion with Ori buffer (pH 6.5) containing 5 mM of a control dipeptide or 5 mM of the tested tripeptide was measured. • (D) Expression and Purification of hRS1"}, "RS1": {"tested_on": "RS1", "experiment": "Immunostaining of RS1 at the TGN in LLC-PK1 cells after brefeldin A", "assay_type": "cell-based", "conditions": "2 μg/ml brefeldin A, 1 or 5 min, subconfluent LLC-PK1 cells", "protocol": "For immunostaining, LLC-PK1 cells were grown on coverslips to about 50% confluence. The cells were washed twice with washing buffer (5 mM 3-(N-morpholino)propanesulfonic acid-NaOH, pH 7.4, 100 mM NaCl, 3 mM KCl, 2 mM CaCl2, and 1 mM MgCl2), fixed for 12 min with 4% (w/v) paraformaldehyde diluted in washing buffer, and washed twice again. Free aldehyde groups were quenched by 10 min incubation with washing buffer containing 40 mM glycine. For immunoreactions, washed cells were permeabilized by a 10-min incubation with washing buffer containing 0.25% (w/v) TritonX-114, and incubated over night at 4° C. with primary antibodies diluted in washing buffer. The dilutions of primary antibodies were as follows: rabbit-anti-RS1-Ab 1:50 (Valentin (2000), Biochim. Biophys. Acta, 1468, 367-380); QIS30 directed against SGLT1 1:400 (Kipp (2003), Am. J. Physiol., 285, C737-C749), sheep-anti-TGN46 1:125 (from Diagnostic International, Schriesheim, Germany). […]\nThe specificity of the antibodies was controlled as follows. […] In controls, no cross-reactivity of the used secondary antibodies with false primary antibodies used in the same experiment was detected. […]"}, "hSGLT1": {"target": "T2, hSGLT1 (Homo sapiens, UniProt P13866)", "T2 construct": "expressed in transfected cells; host or cells: Xenopus laevis oocytes (cRNA injection)", "T2 sequence (P13866 1-664)": "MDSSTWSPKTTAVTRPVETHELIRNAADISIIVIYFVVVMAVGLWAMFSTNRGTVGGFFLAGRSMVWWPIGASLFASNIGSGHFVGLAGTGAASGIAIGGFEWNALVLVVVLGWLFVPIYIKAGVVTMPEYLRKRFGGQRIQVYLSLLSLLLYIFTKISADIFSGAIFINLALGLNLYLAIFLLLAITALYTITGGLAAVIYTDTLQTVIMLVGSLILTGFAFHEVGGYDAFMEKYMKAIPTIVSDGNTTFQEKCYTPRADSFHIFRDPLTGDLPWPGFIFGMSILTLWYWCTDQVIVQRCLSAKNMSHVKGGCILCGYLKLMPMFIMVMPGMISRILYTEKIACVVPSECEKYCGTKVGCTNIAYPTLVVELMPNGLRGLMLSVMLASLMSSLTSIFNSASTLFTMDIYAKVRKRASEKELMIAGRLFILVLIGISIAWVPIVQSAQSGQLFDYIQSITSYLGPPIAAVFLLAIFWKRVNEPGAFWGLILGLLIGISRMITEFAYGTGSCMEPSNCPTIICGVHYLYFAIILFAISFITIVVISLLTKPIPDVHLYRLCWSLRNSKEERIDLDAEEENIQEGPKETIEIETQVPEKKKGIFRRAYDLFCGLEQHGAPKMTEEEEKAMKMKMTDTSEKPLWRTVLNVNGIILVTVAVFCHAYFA", "experiment": "hSGLT1 expressed [14C]AMG uptake in Xenopus oocytes after injection of hRS1 protein or peptides", "assay_type": "cell-based"}, "rbSGLT1": {"target": "T3, rbSGLT1 (Oryctolagus cuniculus, UniProt P11170)", "T3 construct": "expressed in transfected cells; host or cells: Xenopus laevis oocytes (cRNA injection)", "T3 sequence (P11170 1-662)": "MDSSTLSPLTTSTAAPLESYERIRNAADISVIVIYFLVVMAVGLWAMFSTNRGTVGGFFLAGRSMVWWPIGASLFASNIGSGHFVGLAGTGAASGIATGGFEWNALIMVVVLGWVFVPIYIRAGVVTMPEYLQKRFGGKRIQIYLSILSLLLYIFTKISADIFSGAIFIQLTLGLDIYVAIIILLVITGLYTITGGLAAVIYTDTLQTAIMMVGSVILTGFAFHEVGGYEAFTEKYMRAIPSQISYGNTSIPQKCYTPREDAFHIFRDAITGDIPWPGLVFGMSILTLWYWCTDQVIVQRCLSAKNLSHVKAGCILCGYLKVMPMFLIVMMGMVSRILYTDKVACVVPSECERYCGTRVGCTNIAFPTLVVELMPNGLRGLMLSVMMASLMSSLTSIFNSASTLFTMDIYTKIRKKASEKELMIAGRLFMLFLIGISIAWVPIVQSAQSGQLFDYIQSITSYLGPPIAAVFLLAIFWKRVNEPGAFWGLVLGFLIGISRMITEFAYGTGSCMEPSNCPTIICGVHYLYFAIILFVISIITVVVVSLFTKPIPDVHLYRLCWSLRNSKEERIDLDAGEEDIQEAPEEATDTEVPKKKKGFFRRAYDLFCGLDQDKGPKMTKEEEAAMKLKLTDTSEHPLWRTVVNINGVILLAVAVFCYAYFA", "experiment": "rbSGLT1 expressed [14C]AMG uptake in oocytes after peptide injection", "assay_type": "cell-based, rabbit", "conditions": "50 nl containing 3 mM of each peptide, 30 min, 50 μM [14C]AMG; compared with hSGLT1", "protocol": "as §1\nTo develop drugs on the basis of the identified peptides animal models are required."}, "[1]": {"target": "T4, human organic cation transporter 1 (hOCT1) (Homo sapiens, UniProt O15245)", "T4 construct": "expressed in transfected cells; host or cells: oocytes", "T4 sequence (O15245 1-554)": "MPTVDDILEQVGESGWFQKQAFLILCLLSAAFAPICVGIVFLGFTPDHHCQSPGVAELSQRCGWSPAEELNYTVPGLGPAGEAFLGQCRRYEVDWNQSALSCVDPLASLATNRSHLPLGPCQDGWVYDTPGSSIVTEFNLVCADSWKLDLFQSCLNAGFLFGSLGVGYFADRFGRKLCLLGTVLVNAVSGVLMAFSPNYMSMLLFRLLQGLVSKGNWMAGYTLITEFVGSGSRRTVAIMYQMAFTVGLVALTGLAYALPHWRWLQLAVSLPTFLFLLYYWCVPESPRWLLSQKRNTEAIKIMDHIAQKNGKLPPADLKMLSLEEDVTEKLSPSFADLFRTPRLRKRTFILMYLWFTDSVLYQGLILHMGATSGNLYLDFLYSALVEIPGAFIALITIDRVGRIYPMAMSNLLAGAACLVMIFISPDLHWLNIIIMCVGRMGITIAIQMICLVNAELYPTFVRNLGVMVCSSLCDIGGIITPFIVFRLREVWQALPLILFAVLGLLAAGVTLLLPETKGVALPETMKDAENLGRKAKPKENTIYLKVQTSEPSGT", "experiment": "[14C]TEA uptake expressed by hOCT1 in oocytes", "assay_type": "cell-based", "conditions": "intracellular AMG concentration of 0.1 mM", "method": "Corresponding measurements were performed in the presence of intracellular AMG concentrations of 0.1 mM, <0.01 mM or 10 mM."}}, "note": "Read-outs that look alike come from different tables or passages of the source. Peptide text beside a SMILES is read from it."}
{"molecule": "NCC(=O)N[C@@H](CCC(N)=O)C(=O)O", "note": "[GC, glycylglutamine, reference compound] (H-Gly-Gln-OH)", "values": [{"measurement": "inward current induced in oocytes expressing hPEPT1", "setting": "hPEPT1; pH 6.5, clamped to −40 mV", "result": "significant inward currents"}, {"measurement": "inward current in control oocytes not injected with hPEP1-cRNA", "setting": "hPEPT1; pH 6.5, data not shown", "result": "no inward currents"}]}
{"molecule": "C[C@H]1CCC/C=C/[C@@H]2C[C@H](O)C[C@H]2[C@H](O)/C=C/C(=O)O1", "note": "[brefeldin A]", "values": [{"measurement": "RS1 immunoreactivity at the TGN / perinuclear compartment", "setting": "RS1", "result": "released from the TGN"}]}
{"molecule": "IKPSDSDRIEP [Isoleucine-Lysine-Proline-Serine-Aspartic acid-Serine-Aspartic acid -Arginine-Isoleucine-Glutamic acid-Proline]", "values": [{"measurement": "inhibition of glucose uptake expressed by hSGLT1", "setting": "hSGLT1", "result": "about 50%"}, {"measurement": "effect on glucose uptake expressed by rbSGLT1", "setting": "rbSGLT1", "result": "same effect"}]}
{"molecule": "SDSDRIEP [Serine-Aspartic acid-Serine-Aspartic acid-Arginine-Isoleucine-Glutamic acid-Proline]", "values": [{"measurement": "inhibition of glucose uptake expressed by hSGLT1", "setting": "hSGLT1", "result": "about 50%"}, {"measurement": "inhibition of hSGLT1 expressed AMG uptake after stimulation of protein kinase C", "setting": "hSGLT1", "result": "not changed"}, {"measurement": "inhibition of hSGLT1 expressed AMG uptake with coexpressed dominant negative mutant of dynamin I", "setting": "hSGLT1", "result": "not changed"}, {"measurement": "inhibitory effect on expression of hSGLT1 when the exocytotic pathway is blocked", "setting": "hSGLT1", "result": "could be prevented"}]}
{"molecule": "SVQPCQENQ [reference compound]", "values": [{"measurement": "inhibition of [14C]AMG uptake by injected peptide", "setting": "hSGLT1; 50 nl/oocyte containing 1.5 mM peptide, 30 min before uptake", "result": "No inhibition"}]}
{"molecule": "hRS1 protein: purified human regulatory protein RS1 with six C-terminal histidines, SEQ ID NO: 2 (protein, listed as Homo sapiens, C-terminal His6 tag) MSSLPTSDGFNHPARSSGQSPDVGNPMSLARSVSASVCPIKPSDSDRIEPKAVKALKASAEFQLNSEKKEHLSLQDLSDHASSADHAPTDQSPAMPMQNSSEEITVAGNLEKSAERSTQGLKFHLHTRQEASLSVTSTRMHEPQMFLGEKDWHPENQNLSQVSDPQQHEEPGNEQYEVAQQKASHDQEYLCNIGDLELPEERQQNQHKIVDLEATMKGNGLPQNVDPPSAKKSIPSSECSGCSNSETFMEIDTAQQSLVTLLNSTGRQNANVKNIGALDLTLDNPLMEVETSKCNPSSEILNDSISTQDLQPPETNVEIPGTNKEYGHYSSPSLCGSCQPSVESAEESCPSITAALKELHELLVVSSKPASENTSEEVICQSETIAEGQTSIKDLSERWTQNEHLTQNEQCPQVSFHQAISVSVETEKLTGTSSDTGREAVENVNFRSLGDGLSTDKEGVPKSRESINKNRSVTVTSAKTSNQLHCTLGVEISPKLLAGEEDALNQTSEQTKSLSSNFILVKDLGQGIQNSVTDRPETRENVCPDASRPLLEYEPPTSHPSSSPAILPPLIFPATDIDRILRAGFTLQEALGALHRVGGNADLALLVLLAKNIVVPT", "values": [{"measurement": "inhibitory effect on expression of hSGLT1 when the exocytotic pathway is blocked", "setting": "hSGLT1", "result": "could be prevented"}, {"measurement": "inhibition of AMG uptake by injected hRS1 protein in the presence of BTXB", "setting": "hSGLT1; 5 ng hRS1 plus 1.7 ng BTXB, 30 min", "result": "no inhibition"}, {"measurement": "inhibition of hSGLT1 expressed AMG uptake after stimulation of protein kinase C", "setting": "hSGLT1; PKC stimulated with DOG or PMA", "result": "increased"}, {"measurement": "inhibition of hSGLT1 expressed AMG uptake with coexpressed dominant negative mutant of dynamin I", "setting": "hSGLT1; dominant negative dynamin I coexpressed", "result": "reduced"}, {"measurement": "inhibition of hSGLT1 expressed AMG uptake when endocytosis is inhibited", "setting": "hSGLT1; with clorpromazin, imipramin or filipin, data not shown", "result": "unchanged"}, {"measurement": "hOCT1 expressed [14C]TEA uptake after injection", "setting": "[1]", "result": "appears to be inhibited"}]}
